Measured values from PubChem BioAssay AID1259407 (Chemical Carcinogenesis Research Information System (CCRIS), 2018).
The source made the active and inactive calls. How the calls were made is not given here.

System: CCRIS mutagenicity, Ames/micronucleus/aberration tests
Assay: CCRIS mutagenicity studies
[1] = Test System: AMES SALMONELLA TYPHIMURIUM, Strain/Indicator: TA98, Metabolic Activation: NONE
[2] = Test System: AMES SALMONELLA TYPHIMURIUM, Strain/Indicator: TA98, Metabolic Activation: RAT, LIVER, S-9, AROCLOR 1254
[3] = Test System: AMES SALMONELLA TYPHIMURIUM, Strain/Indicator: TA100, Metabolic Activation: NONE
[4] = Test System: AMES SALMONELLA TYPHIMURIUM, Strain/Indicator: TA100, Metabolic Activation: RAT, LIVER, S-9, AROCLOR 1254
[5] = Test System: AMES SALMONELLA TYPHIMURIUM, Strain/Indicator: TA98, Metabolic Activation: NONE, Method: STANDARD PLATE
[6] = Test System: AMES SALMONELLA TYPHIMURIUM, Strain/Indicator: TA100, Metabolic Activation: NONE, Method: STANDARD PLATE

O=[N+]([O-])c1ccc2c(ccc3c4ccccc4ccc23)c1
mutagenic call (Test System: AMES SALMONELLA TYPHIMURIUM, Strain/Indicator: TA98(1,8-DNP6), Metabolic Activation: NONE): active; positive | mutagenic call (Test System: AMES SALMONELLA TYPHIMURIUM, Strain/Indicator: TA98(1,8-DNP6), Metabolic Activation: RAT, LIVER, S-9, AROCLOR 1254): active; positive | mutagenic call (Test System: AMES SALMONELLA TYPHIMURIUM, Strain/Indicator: TA98(NR), Metabolic Activation: NONE): active; positive | mutagenic call (Test System: AMES SALMONELLA TYPHIMURIUM, Strain/Indicator: TA98(NR), Metabolic Activation: RAT, LIVER, S-9, AROCLOR 1254): active; positive | mutagenic call [1]: active; positive | mutagenic call [2]: active; positive | mutagenic call (Test System: AMES SALMONELLA TYPHIMURIUM, Strain/Indicator: TA100(NR), Metabolic Activation: NONE): active; positive | mutagenic call (Test System: AMES SALMONELLA TYPHIMURIUM, Strain/Indicator: TA100(NR), Metabolic Activation: RAT, LIVER, S-9, AROCLOR 1254): active; positive | mutagenic call [3]: active; positive | mutagenic call [4]: active; positive | mutagenic call (Test System: AMES SALMONELLA TYPHIMURIUM, Strain/Indicator: TA104, Metabolic Activation: NONE): active; positive | mutagenic call (Test System: AMES SALMONELLA TYPHIMURIUM, Strain/Indicator: TA104, Metabolic Activation: RAT, LIVER, S-9, AROCLOR 1254): active; positive

CC(=O)Nc1ccnc2ccccc12
mutagenic call (Test System: AMES SALMONELLA TYPHIMURIUM, Strain/Indicator: TA98, Metabolic Activation: NONE, Method: PREINCUBATION): inactive; negative | mutagenic call (Test System: AMES SALMONELLA TYPHIMURIUM, Strain/Indicator: TA98, Metabolic Activation: RAT, LIVER, S-9, KANECHLOR 500, Method: PREINCUBATION): inactive; negative | mutagenic call (Test System: AMES SALMONELLA TYPHIMURIUM, Strain/Indicator: TA100, Metabolic Activation: NONE, Method: PREINCUBATION): inactive; negative | mutagenic call (Test System: AMES SALMONELLA TYPHIMURIUM, Strain/Indicator: TA100, Metabolic Activation: RAT, LIVER, S-9, KANECHLOR 500, Method: PREINCUBATION): inactive; negative

C=C(C)C1CO1 (stereo not given)
mutagenic call [5]: inactive; negative | mutagenic call [6]: inactive; negative

C=CCc1cc(OC)c(OC)c(OC)c1
mutagenic call (Test System: UDS RAT HEPATOCYTES, Strain/Indicator: THY INCORP, Metabolic Activation: NONE, Method: LIQUID SCINTILLATION COUNTING): active; positive

FC(F)(F)C(F)(F)C(F)(F)C(F)(F)I
mutagenic call (End Point: IN VITRO CHROMOSOMAL ABERRATIONS, Test System: HUMAN PERIPHERAL BLOOD LYMPHOCYTES, Metabolic Activation: NONE): inactive; negative | mutagenic call (End Point: IN VITRO CHROMOSOMAL ABERRATIONS, Test System: HUMAN PERIPHERAL BLOOD LYMPHOCYTES, Metabolic Activation: RAT, LIVER, S-9, AROCLOR 1254): inactive; negative | mutagenic call [1]: inactive; negative | mutagenic call [2]: inactive; negative | mutagenic call [3]: inactive; negative | mutagenic call [4]: inactive; negative | mutagenic call (Test System: AMES SALMONELLA TYPHIMURIUM, Strain/Indicator: TA1535, Metabolic Activation: NONE): inactive; negative | mutagenic call (Test System: AMES SALMONELLA TYPHIMURIUM, Strain/Indicator: TA1535, Metabolic Activation: RAT, LIVER, S-9, AROCLOR 1254): inactive; negative | mutagenic call (Test System: AMES SALMONELLA TYPHIMURIUM, Strain/Indicator: TA1537, Metabolic Activation: NONE): inactive; negative | mutagenic call (Test System: AMES SALMONELLA TYPHIMURIUM, Strain/Indicator: TA1537, Metabolic Activation: RAT, LIVER, S-9, AROCLOR 1254): inactive; negative | mutagenic call (Test System: E. COLI, Strain/Indicator: WP2UVRA, Metabolic Activation: NONE): inactive; negative | mutagenic call (Test System: E. COLI, Strain/Indicator: WP2UVRA, Metabolic Activation: RAT, LIVER, S-9, AROCLOR 1254): inactive; negative

CC(=O)Nc1ccccc1C
mutagenic call [5]: inactive; negative | mutagenic call (Test System: AMES SALMONELLA TYPHIMURIUM, Strain/Indicator: TA98, Metabolic Activation: RAT, LIVER, S-9, AROCLOR 1254, Method: STANDARD PLATE): inactive; negative | mutagenic call [6]: inactive; negative | mutagenic call (Test System: AMES SALMONELLA TYPHIMURIUM, Strain/Indicator: TA100, Metabolic Activation: RAT, LIVER, S-9, AROCLOR 1254, Method: STANDARD PLATE): inactive; negative
